Experimental data taken from PubChem BioAssay (NCI).
“And” between values parts separate entries of the source, which are not always exact repeats. Equal values may be shown once.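 Five concentrations, 48 hours, 96-well plates. GI50: concentration for 50% inhibition of growth. TGI marks complete inhibition of growth.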 Where a SMILES comes first, the peptide text is derived from it. [ ]: non-standard residue; d: D form. Orn = NCCC[CH](N)C(=O)O

System: MDA-MB-468 breast
Test: NCI-60 cell line screen, 48 h

For `COC(C(=O)[C@@H](O)[C@@H](C)O)[C@@H]1Cc2cc3cc(O[C@H]4C[C@@H](O[C@H]5C[C@@H](O)[C@H](O)C(C)O5)[C@H](O)C(C)O4)c(C)c(O)c3c(O)c2C(=O)[C@H]1O[C@H]1C[C@@H](O[C@H]2C[C@@H](O[C@H]3C[C@@H](O)[C@@H](O)C(C)O3)[C@@H](O)C(C)O2)[C@H](O)C(C)O1` (some centres not stated), which GI50 is on record?
The GI50 was 0.396 µM.

And the TGI?
Its TGI is 4.09 µM.

What does the source list for `COc1ccc(-c2oncc2-c2cc(OC)c3c(c2)OCO3)cc1`?
GI50: 1.35 µM; TGI: > 29.7 µM

Which results are given for `Cc1cc(Cl)ccc1Nc1nc(C(F)(F)F)ccc1C(=O)N/N=C/c1ccc(F)cc1`?
GI50: 0.706 µM; TGI: 3.26 µM

What does the source list for `Cc1cccc2c(=O)c3c(sc12)c(NCCN)nc1ccccc13`?
GI50: 0.7 µM; TGI: 1.58 µM

`CCNCCNc1cc(C2CCCC2)c(C#N)c2nc3ccccc3n12` was tested. Which GI50 did it give?
Its GI50 is 1.64 µM.

What about the TGI of the same compound?
The TGI was 3.67 µM.

What does the source list for `O=CNc1ccc2c(c1)Cc1cc([N+](=O)[O-])ccc1-2`?
GI50: 1.88 µM; TGI: > 100 µM

What does the source list for `Cc1ccc(C2CC(c3cccc(Nc4ccncc4)c3)=NN2c2ccc(Cl)cc2)cc1` (configuration not stated)?
GI50: 1.67 µM; TGI: 3.25 µM

How did the GI50 turn out when `C#CCOc1c(OC)cc(C(=O)/C(C)=C/c2cccc(N=[N+]=[N-])c2)cc1OC` was run?
Its GI50 is 0.0855 µM.

And the TGI?
Its TGI is greater than 100 µM.

What does the source list for `Cc1cc(Cl)ccc1Nc1nc(C(F)(F)F)ccc1C(=O)N/N=C/c1c(Cl)cccc1Cl`?
GI50: 0.274 µM; TGI: 0.842 µM

How did the GI50 turn out when `O=C1C=CC(=O)N1CCCCCCCCCCN1C(=O)C=CC1=O` was run?
Its GI50 is 3.22 µM.

And the TGI?
Its TGI is 14 µM.

Which results are given for `Cn1cc(C2=C(c3cccc(NCC(O)CO)c3)C(=O)NC2=O)c2cc(Cl)ccc21` (configuration not stated)?
GI50: 2.11 µM; TGI: 8.43 µM

Which results are given for `N=C1N=Nc2nc(C3(c4nc5n(c4O)C(=N)N=N5)Cc4ccccc4C3=O)c(O)n21` (configuration not stated)?
GI50: 49.8 µM; TGI: > 100 µM

What does the source list for `N=C(N)c1ccc(-c2ccc(-c3ccco3)o2)cc1F`?
GI50: 1.57 µM; TGI: 3.41 µM

For `C#Cc1ccc(-n2c(/C=C/c3ccc4ccccc4n3)nc3ncccc3c2=O)cc1`, which GI50 is on record?
Its GI50 is 0.232 µM.

And the TGI?
Its TGI is 0.894 µM.

Which GI50 does the source give for `O=C(Nc1ncc(Cc2ccc(Cl)cc2)s1)c1ccc2c(c1)OCCO2` here?
Its GI50 is 0.258 µM.

`COc1cccc(-c2cc(NCc3ccc4c(c3)OCO4)nc(N)n2)c1` was tested. Which GI50 did it give?
The GI50 was 0.22 µM.

What about the TGI of the same compound?
The TGI was 15.1 µM.

With `CCOCC[P+](c1ccccc1)(c1ccccc1)c1ccccc1` as the compound, how does the GI50 read?
The GI50 was 2.62 µM.

What about the TGI of the same compound?
The TGI was 24.9 µM.

With `Fc1ccc(-c2cc3nc(C(Cl)Cl)nc(-c4ccccc4)n3n2)cc1` as the compound, how does the GI50 read?
The GI50 was 0.269 µM.

What about the TGI of the same compound?
The TGI was 0.869 µM.

How did the GI50 turn out when `CC(C)CC1NC(=O)C(CCCN)NC(=O)C(C(C)C)NC(=O)C2CCCN2C(=O)C(Cc2ccccc2)NC(=O)C(CC(C)C)NC(=O)C(CCCN)NC(=O)C(C(C)C)NC(=O)C2CCCN2C(=O)C(Cc2ccccc2)NC1=O` (configuration not stated) (cyclo(FPV[Orn]LFPV[Orn]L); configuration not given here) was run?
The GI50 was 0.00394 µM.

What about the TGI of the same compound?
The TGI was 0.0222 µM and 0.0268 µM.

Which results are given for `Cc1ccc(S(=O)(=O)N2C/C(=C\c3cc(F)cc(F)c3)C(=O)/C(=C/c3cc(F)cc(F)c3)C2)cc1`?
GI50: 0.385 µM; TGI: 1.76 µM

`COc1ccc(/C=C/C(=O)c2ccc(NC(=O)CSc3nnc(-c4cc(OC)c(OC)c(OC)c4)o3)cc2)cc1` was tested. Which GI50 did it give?
The GI50 was 2.1 µM.

What about the TGI of the same compound?
The TGI was 5.02 µM.

Which results are given for `CCN1C(=O)N(CC)C2C1NN=C1SC(c3ccccc3)=CC(=O)N12` (configuration not stated)?
GI50: 0.231 µM; TGI: 0.867 µM

What does the source list for `CCN1CCN(Cc2ccc3cc(C(=O)Nc4cc(NC(=O)c5ccc6c(c5)OCCO6)ccc4F)ccc3n2)CC1`?
GI50: 0.0335 µM; TGI: 0.181 µM

What does the source list for `CCN(CC)CCCC(C)Nc1ccnc2cc(Cl)c(SCc3ccccc3)cc12` (configuration not stated)?
GI50: 1.23 µM; TGI: 2.57 µM

Which results are given for `CCOC(=O)c1c2c(n3cccc(F)c13)C(=O)c1ncccc1C2=O`?
GI50: 2.87 µM; TGI: 9.68 µM

`CCOC(=O)C1=C(N)Oc2cc(OC)ccc2C1c1ccc(F)c(F)c1` (configuration not stated) was tested. Which GI50 did it give?
Its GI50 is 0.352 µM.

What about the TGI of the same compound?
Its TGI is 4 µM.

What does the source list for `Clc1cccc(Cc2cn3cc(-c4ccccc4)nc3s2)c1`?
GI50: 4.45 µM; TGI: > 100 µM

How did the GI50 turn out when `CC(=O)/C=C/c1ccc(N(C)Cc2ccc(C(C)(C)C)cc2)cc1` was run?
Its GI50 is 59.7 µM.

What about the TGI of the same compound?
The TGI was 215 µM.

Which GI50 does the source give for `COC(=O)c1cccc(NC2=C(Cl)C(=O)c3nc(C)ccc3C2=O)c1` here?
The GI50 was 1.61 µM.

And the TGI?
Its TGI is 3.28 µM.

Which results are given for `O=C(Nc1cccc2ccccc12)c1cc2ccccc2cc1O`?
GI50: 2.45 µM; TGI: 6.33 µM

How did the GI50 turn out when `O=C(O)c1cn(C2CC2)c2cc(N3CCN(C(=O)Nc4nc(-c5ccc(Cl)cc5)cs4)CC3)c(F)cc2c1=O` was run?
Its GI50 is 1.75 µM.

What about the TGI of the same compound?
Its TGI is 8.15 µM.

How did the GI50 turn out when `C#Cc1cc(OC)c(C(=O)Nc2ccc(F)cc2C(=O)Nc2cccc(S(=O)(=O)C(F)(F)F)c2)cn1` was run?
The GI50 was 1.51 µM.

What about the TGI of the same compound?
Its TGI is 3.99 µM.

Which results are given for `O=C(Nc1cccc(-n2cc(-c3ccncc3)c(-c3ccc(O)c(Cl)c3)n2)c1)Nc1ccc(Cl)c(C(F)(F)F)c1`?
GI50: 2.19 µM; TGI: 6.84 µM

Which results are given for `CCC1=C[C@H]2CN(CCc3c([nH]c4ccccc34)[C@@](C(=O)OC)(c3cc4c(cc3OC)N(C)[C@H]3[C@@](O)(C(=O)OC)[C@H](OC(C)=O)[C@]5(CC)[C@@H]6C[C@@H]6CN6CC[C@]43[C@@H]65)C2)C1`?
GI50: 0.0145 µM; TGI: 6.59 µM

For `COc1ccc2c(c1)N(CCO)C1=C(C(=O)OC1)C2c1cccc(Br)c1` (configuration not stated), which GI50 is on record?
Its GI50 is 0.0287 µM.

And the TGI?
The TGI was 0.128 µM.

`Cc1ccc(S(=O)(=O)C2=C3C(=C(c4ccccc4)c4ccccc43)CN(S(=O)(=O)c3ccc(C)cc3)C2)cc1` was tested. Which GI50 did it give?
The GI50 was 5.01 µM.

What about the TGI of the same compound?
Its TGI is 40.6 µM.

How did the GI50 turn out when `COc1ccc(/C=C2\CCCC3=C2N=C2SC=NN2C3c2ccc(OC)c(OC)c2)cc1OC` (configuration not stated) was run?
The GI50 was 2.18 µM.

And the TGI?
The TGI was 25.3 µM.

With `COc1cc(C2c3cc4c(cc3OC(O)C2C)OCO4)cc(OC)c1O` (configuration not stated) as the compound, how does the GI50 read?
The GI50 was 10.6 µM.

And the TGI?
The TGI was greater than 100 µM.

What does the source list for `COc1cc([C@@H]2c3cc4c(cc3[C@H](O)[C@H]3COC(=O)[C@@H]23)OCO4)cc(OC)c1OC`?
GI50: 0.278 µM and 0.0548 µM; TGI: 2.87 µM and 0.453 µM

What does the source list for `CN(C)CCOc1cccc(NC2=C(Cl)C(=O)C(Nc3cccc(OCCN(C)C)c3)=C(Cl)C2=O)c1`?
GI50: 0.181 µM; TGI: 0.358 µM

`NNc1nc(-c2ccccn2)nc2sc3c(c12)CCCCCC3` was tested. Which GI50 did it give?
The GI50 was 3.67 µM.

And the TGI?
The TGI was 31.7 µM.

Which results are given for `CCCNNC(=O)c1ccc(CNC(=O)/C=C/c2ccccc2)cc1`?
GI50: 0.311 µM; TGI: > 31.1 µM

Which GI50 does the source give for `COc1ccc2oc(-c3ccc(Cl)cc3)c(N3CCN(C)CC3)c2c1` here?
Its GI50 is 1.66 µM.

What about the TGI of the same compound?
Its TGI is 4.31 µM.

What does the source list for `N=c1c2c(=O)n3c(nc2nc2sc4ccc(Cl)cc4n12)-c1ccccc1Sc1ccccc1-3`?
GI50: 2.67 µM; TGI: 12.4 µM
